In general, EC50 refers to the concentration needed to bring the measured effect to its halfway point.

From patent US8586755B2, “Substituted nicotinamides as KCNQ2/3 modulators” (Grünenthal GmbH, priority 2009, dated 2013) come the findings set out here.

Each structure is given as a SMILES string.

The experiment has as its target T1, KCNQ2/3 channels (Homo sapiens, UniProt O43525+O43526).
T1 construct: expressed in transfected cells
Description: Fluorescence assay using a voltage sensitive dye (fluorimetry). Type of experiment: cell-based. Conditions: CHO-K1 cells expressing KCNQ2/3 channels; for EC50: agonistic activity; for Emax: retigabine 50 μM = 100%, read-out: Fluorimetry % efficacy (retigabine 50 μM = 100%). How it is done:
Pharmacological Experiments Fluorescence Assay Using a Voltage Sensitive Dye
Human CHO-K1 cells expressing KCNQ2/3 channels are cultivated adherently at 37° C., 5% CO2 and 95% humidity in cell culture bottles (e.g. 80 cm^2 TC flasks, Nunc) with DMEM-high glucose (Sigma Aldrich, D7777) including 10% FCS (PAN Biotech, e.g. 3302-P270521) or alternatively MEM Alpha Medium (1×, liquid, Invitrogen, #22571), 10% fetal calf serum (FCS) (Invitrogen, #10270-106, heat-inactivated) and the necessary selection antibiotics.
Before being sown out for the measurements, the cells are washed with a 1×DPBS buffer without Ca^2+/Mg^2+ (e.g. Invitrogen, #14190-094) and detached from the bottom of the culture vessel by means of Accutase (PAA Laboratories, #L11-007) (incubation with Accutase for 15 min at 37° C.). The cell count then present is determined using a CASY™ cell counter (TCC model, Schärfe System) in order subsequently to apply, depending on the density optimization for the individual cell line, 20,000-30,000 cells/well/100 μl of the described nutrient medium to 96-well measuring plates of the Corning™ CellBIND™ type (Flat Clear Bottom Black Polystyrene Microplates, #3340). Incubation is then carried out for one hour at room temperature, without gassing or adjusting the humidity, followed by incubation for 24 hours at 37° C., 5% CO2 and 95% humidity.
The voltage-sensitive fluorescent dye from the Membrane Potential Assay Kit (Red™ Bulk format part R8123 for FLIPR, MDS Analytical Technologies™) is prepared by dissolving the contents of a vessel Membrane Potential Assay Kit Red Component A in 200 ml of extracellular buffer (ES buffer, 120 mM NaCl, 1 mM KCl, 10 mM HEPES, 2 mM CaCl2, 2 mM MgCl2, 10 mM glucose; pH 7.4). After removal of the nutrient medium, the cells are washed with 200 μl of ES buffer, then covered with a layer of 100 μl of the dye solution prepared above and incubated for 45 min at room temperature with the exclusion of light.
The fluorescence measurements are carried out with a BMG Labtech FLUOstar™ BMG Labtech NOVOstar™ or BMG Labtech POLARstar™ instrument (525 nm excitation, 560 nm emission, Bottom Read mode). After incubation of the dye, 50 μl of the test substances in the desired concentrations, or 50 μl of ES buffer for control purposes, are introduced into separate cavities of the measuring plate and incubated for 30 min at room temperature while being shielded from light. The fluorescence intensity of the dye is then measured for 5 min and the fluorescence value F1 of each well is thus determined at a given, constant time. 15 μl of a […] KCl solution ([…]) are then added to each well. The change in fluorescence is subsequently measured until all the relevant measured values have been obtained (mainly 5-30 min). At a given time after KCl application, a fluorescence value F2 is determined, in this case at the time of the fluorescence peak.
For calculation, the fluorescence intensity F2 is compared with the fluorescence intensity F1, and the agonistic activity of the target compound on the potassium channel is determined therefrom. F2 and F1 are calculated as follows: […]
In order to determine whether a substance has agonistic activity,
A substance has an agonistic activity on the potassium channel when
[formula] it is possible to conclude that a target compound has agonistic activity if an increase in
[formula] is to be observed as the dosage of the target compound increases.
Calculations of EC50 values are carried out with the aid of ‘Prism v4.0’ software (GraphPad Software™).

For `O=C(NCC1CC2CCC1C2)c1cccnc1SCCCc1cc(F)cc(F)c1` (stereo not drawn) [compound 61, N-(5-Bicyclo[2.2.1]heptanyl-methyl)-2-[3-(3,5-difluoro-phenyl)-propylsulfanyl]-pyridine-3-carboxylic acid amide], the EC50 came to 221 nM and the Emax stood at 283%. Consider `O=C(NCC1CC2CCC1C2)c1cccnc1SCCCc1ccc(F)cc1F` (stereo not drawn) [compound 62, N-(5-Bicyclo[2.2.1]heptanyl-methyl)-2-[3-(2,4-difluoro-phenyl)-propylsulfanyl]-pyridine-3-carboxylic acid amide], for which the EC50 turned out to be 182 nM and the Emax was 274%.

In the case of `O=C(NCc1ccccc1F)c1cccnc1SCCCc1ccc(F)cc1` [compound 63, N-[(2-Fluorophenyl)-methyl]-2-[3-(4-fluorophenyl)-propylsulfanyl]-pyridine-3-carboxylic acid amide], a half-maximal response (EC50) required 34 nM and the Emax amounted to 72%.

Consider `O=C(NCc1cccc(F)c1)c1cccnc1SCCCc1ccc(F)cc1` [compound 64, N-[(3-Fluorophenyl)-methyl]-2-[3-(4-fluorophenyl)-propylsulfanyl]-pyridine-3-carboxylic acid amide], for which the EC50 amounted to 49 nM and the Emax came to 100%. The like results for `O=C(NCc1ccccc1)c1cccnc1SCCCc1ccc(F)cc1` [compound 66, N-Benzyl-2-[3-(4-fluorophenyl)-propylsulfanyl]-pyridine-3-carboxylic acid amide] were, in that order, 50 nM and 121%.

Take `CC(CCc1ccccc1)Sc1ncccc1C(=O)NCC1CC2CCC1C2` (stereo not drawn) [compound 67, N-(5-Bicyclo[2.2.1]heptanyl-methyl)-2-[(1-methyl-3-phenyl-propyl)sulfanyl]-pyridine-3-carboxylic acid amide]: the EC50 is 113 nM and the Emax was 290%. In the same order, the values of `O=C(NCC1CC2CCC1C2)c1cccnc1SCCCc1cc(F)cc(C(F)(F)F)c1` (stereo not drawn) [compound 69, N-(5-Bicyclo[2.2.1]heptanyl-methyl)-2-[3-[3-fluoro-5-(trifluoromethyl)-phenyl]-propylsulfanyl]-pyridine-3-carboxylic acid amide] are 140 nM and 259%. The like results for `COc1cccc(CCCSc2ncccc2C(=O)NCC2CC3CCC2C3)c1` (stereo not drawn) [compound 70, N-(5-Bicyclo[2.2.1]heptanyl-methyl)-2-[3-(3-methoxyphenyl)-propylsulfanyl]-pyridine-3-carboxylic acid amide] were, in that order, 244 nM and 308%. In the same order, the values of `O=C(NCc1ccc(F)c(F)c1)c1cccnc1SCCCc1ccc(F)cc1` [compound 71, N-[(3,4-Difluoro-phenyl)-methyl]-2-[3-(4-fluorophenyl)-propylsulfanyl]-pyridine-3-carboxylic acid amide] are 72 nM and 107%. For the molecule `O=C(NCc1ccc2c(c1)CCO2)c1cccnc1SCCCc1ccc(F)cc1` [compound 72, N-(2,3-Dihydro-benzofuran-5-yl-methyl)-2-[3-(4-fluorophenyl)-propylsulfanyl]-pyridine-3-carboxylic acid amide], the EC50 came out at 85 nM and the Emax is 85%. On to `O=C(NCC1CC2CCC1C2)c1cccnc1SCCCc1cccc(O)c1` (stereo not drawn) [compound 73, N-(5-Bicyclo[2.2.1]heptanyl-methyl)-2-[3-(3-hydroxyphenyl)-propylsulfanyl]-pyridine-3-carboxylic acid amide], for which the EC50 was determined as 377 nM and the Emax stood at 268%. The like results for `CC(CCc1ccc(F)cc1)Sc1ncccc1C(=O)NCC1CC2CCC1C2` (stereo not drawn) [compound 74, N-(5-Bicyclo[2.2.1]heptanyl-methyl)-2-[[3-(4-fluorophenyl)-1-methyl-propyl]sulfanyl]-pyridine-3-carboxylic acid amide] were, in that order, 62 nM and 260%. Turning to `CC(CSc1ncccc1C(=O)NCC1CC2CCC1C2)Cc1ccc(F)cc1` (stereo not drawn) [compound 75, N-(5-Bicyclo[2.2.1]heptanyl-methyl)-2-[[3-(4-fluorophenyl)-2-methyl-propyl]sulfanyl]-pyridine-3-carboxylic acid amide], the EC50 was found to be 37 nM and the Emax amounted to 261%. As to `COc1ccccc1CNC(=O)c1cccnc1SCCCc1ccc(F)cc1` [compound 76, 2-[3-(4-Fluorophenyl)-propylsulfanyl]-N-[(2-methoxyphenyl)-methyl]-pyridine-3-carboxylic acid amide], the Emax was 33%.

In the case of `COc1cccc(CNC(=O)c2cccnc2SCCCc2ccc(F)cc2)c1` [compound 77, 2-[3-(4-Fluorophenyl)-propylsulfanyl]-N-[(3-methoxyphenyl)-methyl]-pyridine-3-carboxylic acid amide], the EC50 was 233 nM and the Emax was determined as 118%. The like results for `O=C(NCCc1ccccc1)c1cccnc1SCCCc1ccc(F)cc1` [compound 78, 2-[3-(4-Fluorophenyl)-propylsulfanyl]-N-phenethyl-pyridine-3-carboxylic acid amide] were, in that order, 319 nM and 53%.

For the molecule `O=C(NCc1ccc(OC(F)(F)F)cc1)c1cccnc1SCCCc1ccc(F)cc1` [compound 79, 2-[3-(4-Fluorophenyl)-propylsulfanyl]-N-[[4-(trifluoromethyloxy)-phenyl]-methyl]-pyridine-3-carboxylic acid amide], the EC50 came out at 101 nM and the Emax stood at 103%. In the same order, the values of `O=C(NCc1ccc(C(F)(F)F)cc1)c1cccnc1SCCCc1ccc(F)cc1` [compound 80, 2-[3-(4-Fluorophenyl)-propylsulfanyl]-N-[[4-(trifluoromethyl)-phenyl]-methyl]-pyridine-3-carboxylic acid amide] are 77 nM and 104%. The like results for `O=C(NCCc1cccnc1)c1cccnc1SCCCc1ccc(F)cc1` [compound 81, 2-[3-(4-Fluorophenyl)-propylsulfanyl]-N-(2-pyridine-3-yl-ethyl)-pyridine-3-carboxylic acid amide] were, in that order, 8020 nM and 89%. In the case of `O=C(NCCc1ccccn1)c1cccnc1SCCCc1ccc(F)cc1` [compound 82, 2-[3-(4-Fluorophenyl)-propylsulfanyl]-N-(2-pyridine-2-yl-ethyl)-pyridine-3-carboxylic acid amide], the EC50 turned out to be 6460 nM and the Emax stood at 96%.

Turning to `O=C(NCc1ccccc1O)c1cccnc1SCCCc1ccc(F)cc1` [compound 83, 2-[3-(4-Fluorophenyl)-propylsulfanyl]-N-[(2-hydroxyphenyl)-methyl]-pyridine-3-carboxylic acid amide], the EC50 is 139 nM and the Emax turned out to be 171%.

Turning to `O=C(NCc1cccc(O)c1)c1cccnc1SCCCc1ccc(F)cc1` [compound 84, 2-[3-(4-Fluorophenyl)-propylsulfanyl]-N-[(3-hydroxyphenyl)-methyl]-pyridine-3-carboxylic acid amide], it took 3510 nM to reach a half-maximal effect (EC50) and the Emax turned out to be 55%. With `Cc1cccc(CCNC(=O)c2cccnc2SCCCc2ccc(F)cc2)c1` [compound 85, 2-[3-(4-Fluorophenyl)-propylsulfanyl]-N-[2-(m-tolyl)-ethyl]-pyridine-3-carboxylic acid amide], the EC50 was determined as 394 nM and the Emax is 59%.
